# Measurements reported in ChEMBL document CHEMBL1649497, “Comparison of the pharmacodynamics of biapenem in bronchial epithelial lining fluid in healthy volunteers given half-hour and three-hour intravenous infusions” (Antimicrob Agents Chemother, 2009).
# Columns and labels:
# [1] = T>MIC in healthy human at epithelial lining fluid MIC of 1 ug/ml and compound dose of 0.3 […], iv after 0.5 hrs; format: functional
# [2] = Tmax in epithelial lining fluid of healthy human at 0.3 […], iv after 0.5 hrs; format: ADME, organism-based
# [3] = Cmax in epithelial lining fluid of healthy human at 0.3 […], iv after 3 hrs; format: ADME, organism-based; design: route intravenous
# [4] = T>MIC in healthy human at epithelial lining fluid MIC of 2 ug/ml and compound dose of 0.3 […], iv after 3 hrs; format: functional
# [5] = AUC in plasma of healthy human at 0.3 […], iv after 3 hrs; format: ADME, organism-based; design: time < 3 hr, route intravenous
# [6] = T>MIC in healthy human at plasma MIC of 1 ug/ml and compound dose of 0.3 […], iv after 3 hrs; format: functional
# [7] = T>MIC in healthy human at plasma MIC of 4 ug/ml and compound dose of 0.3 […], iv after 3 hrs; format: functional
# [8] = Drug level in epithelial lining fluid of healthy human at 0.3 […], iv after 0.5 hrs; format: ADME, organism-based; conditions: read-out: Drug uptake
# [9] = Cmax in plasma of healthy human at 0.3 […], iv after 0.5 hrs; format: ADME, organism-based; design: route intravenous
# [10] = T>MIC in healthy human at plasma MIC of 4 ug/ml and compound dose of 0.3 […], iv after 0.5 hrs; format: functional
# [11] = T>MIC in healthy human at epithelial lining fluid MIC of 0.5 ug/ml and compound dose of 0.3 […], iv after 0.5 hrs; format: functional
# [12] = AUC in epithelial lining fluid of healthy human at 0.3 […], iv after 3 hrs; format: ADME, organism-based; design: time < 3 hr, route intravenous
# [13] = T>MIC in healthy human at epithelial lining fluid MIC of 2 ug/ml and compound dose of 0.3 […], iv after 0.5 hrs; format: functional
# [14] = T>MIC in healthy human at plasma MIC of 2 ug/ml and compound dose of 0.3 […], iv after 0.5 hrs; format: functional
# [15] = T>MIC in healthy human at epithelial lining fluid MIC of 1 ug/ml and compound dose of 0.3 […], iv after 3 hrs; format: functional
# [16] = Tmax in epithelial lining fluid of healthy human at 0.3 […], iv after 3 hrs; format: ADME, organism-based
# [17] = T>MIC in healthy human at plasma MIC of 2 ug/ml and compound dose of 0.3 […], iv after 3 hrs; format: functional
# [18] = T>MIC in healthy human at epithelial lining fluid MIC of 0.25 ug/ml and compound dose of 0.3 […], iv after 3 hrs; format: functional
# [19] = T>MIC in healthy human at plasma MIC of 1 ug/ml and compound dose of 0.3 […], iv after 0.5 hrs; format: functional
# [20] = T>MIC in healthy human at plasma MIC of 0.5 ug/ml and compound dose of 0.3 […], iv after 0.5 hrs; format: functional
# [21] = T>MIC in healthy human at plasma MIC of 0.25 ug/ml and compound dose of 0.3 […], iv after 3 hrs; format: functional
# [22] = Drug level in epithelial lining fluid of healthy human at 0.3 […], iv after 3 hrs; format: ADME, organism-based; conditions: read-out: Drug uptake
# [23] = T>MIC in healthy human at epithelial lining fluid MIC of 4 ug/ml and compound dose of 0.3 […], iv after 0.5 hrs; format: functional
# [24] = AUC in plasma of healthy human at 0.3 […], iv after 0.5 hrs; format: ADME, organism-based; design: time < 0.5 hr, route intravenous
# [25] = T>MIC in healthy human at epithelial lining fluid MIC of 0.5 ug/ml and compound dose of 0.3 […], iv after […] hrs; format: functional
# [26] = Cmax in epithelial lining fluid of healthy human at 0.3 […], iv after 0.5 hrs; format: ADME, organism-based; design: route intravenous
# [27] = Cmax in plasma of healthy human at 0.3 […], iv after 3 hrs; format: ADME, organism-based; design: route intravenous
# [28] = T>MIC in healthy human at epithelial lining fluid MIC of 4 ug/ml and compound dose of 0.3 […], iv after 3 hrs; format: functional
# [29] = T>MIC in healthy human at epithelial lining fluid MIC of 0.5 ug/ml and compound dose of 0.3 […], iv after 3 hrs; format: functional
# [30] = T>MIC in healthy human at plasma MIC of 0.5 ug/ml and compound dose of 0.3 […], iv after 3 hrs; format: functional
# [31] = Tmax in plasma of healthy human at 0.3 […], iv after 3 hrs; format: ADME, organism-based
# [32] = Tmax in plasma of healthy human at 0.3 […], iv after 0.5 hrs; format: ADME, organism-based
# [33] = AUC in epithelial lining fluid of healthy human at 0.3 […], iv after 0.5 hrs; format: ADME, organism-based; design: time < 0.5 hr, route intravenous
# [34] = T>MIC in healthy human at plasma MIC of 0.25 ug/ml and compound dose of 0.3 […], iv after 0.5 hrs; format: functional
compound,measurement,setting,value
C[C@@H](O)[C@H]1C(=O)N2C(C(=O)[O-])=C(SC3Cn4cnc[n+]4C3)[C@H](C)[C@H]12 (some centres undefined) [BIAPENEM],fT>MIC,[1],15.5%
same,Tmax,[2],1.5 h
same,Cmax,[3],4360 ng/mL
same,fT>MIC,[4],17.4%
same,AUC at 3 h,[5],25400 ng·h/mL
same,fT>MIC,[6],43.8%
same,fT>MIC,[7],22.3%
same,concentration at 0.5 h,[8],3480 ng/mL
same,Cmax,[9],18100 ng/mL
same,fT>MIC,[10],12.6%
same,fT>MIC,[11],25.5%
same,AUC at 3 h,[12],13300 ng·h/mL
same,fT>MIC,[13],5.8%
same,fT>MIC,[14],21.1%
same,fT>MIC,[15],29.1%
same,Tmax,[16],1.8 h
same,fT>MIC,[17],34.3%
same,fT>MIC,[18],52.2%
same,fT>MIC,[19],31.9%
same,fT>MIC,[20],43.1%
same,fT>MIC,[21],64.5%
same,concentration at 3 h,[22],1330 ng/mL
same,fT>MIC,[23],0%
same,AUC at 0.5 h,[24],25000 ng·h/mL
same,fT>MIC,[25],34.6%
same,Cmax,[26],2350 ng/mL
same,Cmax,[27],6800 ng/mL
same,fT>MIC,[28],5.1%
same,fT>MIC,[29],41.4%
same,fT>MIC,[30],53.7%
same,Tmax,[31],3 h
same,Tmax,[32],0.5 h
same,AUC at 0.5 h,[33],6400 ng·h/mL
same,fT>MIC,[34],53.5%
